Patent US20240358701A1, “PHARMACEUTICAL COMPOSITIONS AND COMBINATIONS COMPRISING INHIBITORS OF THE ANDROGEN RECEPTOR AND USES THEREOF” (ESSA Pharma Inc., priority 2021, published 2024)
Where two headings read alike, the source gives them in different places.

Columns and labels:
[1] = Phase 1 dose escalation (Example 3): PK evaluation / drug-drug interaction; format: in vivo, human; settings: for exposure under drug-drug interaction with a concomitant medication (strong CYP3A inducer): discontinued at end of cycle 2; for AUC: human, plasma, oral, 600 mg QD, read-out: AUCss for Compound A
Method: Phase 1 of the study is a single-arm dose escalation study of Compound A in combination with a fixed dose of enzalutamide (120 mg/day). This portion of the study primarily evaluates the safety and tolerability of the drug combination and establishes the RP2CD for Compound A and enzalutamide when dosed in combination. In addition, blood sampling will be conducted for PK evaluation to assess the potential drug-drug interaction (DDI) between the two drugs.
In the Phase 1 part of the study each dose cohort will receive a 7-day run-in with single agent Compound A to establish steady-state concentrations of this drug at that dose level, followed by 28-day cycles of the combination Compound A with enzalutamide. Subjects may remain on study treatment as long as they are tolerating treatment without disease progression based on Response Evaluation Criteria in Solid Tumors (RECIST) v1.1 or based on Prostate Cancer Working Group 3 (PCWG3) criteria. A 30-day End of Treatment Visit will be conducted 30 days from the date of the last dose.
For Cohort 1, subjects (n=3) were orally administered 600 mg QD (once a day) of Compound A alone for 7 days then administered 600 mg QD Compound A in combination with 120 mg QD enzalutamide for at least one cycle (e.g., 28 days). Two subjects received the combination of Compound A and enzalutamide for at least 4 cycles (e.g., 16 weeks).
The plasma concentration data for Compound A, enzalutamide, N-desmethylated enzalutamide (M2; active metabolite) will be analyzed using non-compartmental methods to obtain estimates of standard PK parameters.
PK parameters of Compound A following multiple dosing including but not limited to plasma area under the concentration-time curve from time zero to 24 hours (AUC0-24), maximum concentration (Cmax), observed pre-dose plasma concentration during multiple dosing (Ctrough), time to reach Cmax (Tmax), apparent terminal elimination half-life (t½; whenever feasible to calculate), apparent volume of distribution at steady state after extravascular administration (Vss/F), apparent clearance after extravascular administration (CL/F).
PK parameters of enzalutamide and its primary active metabolite following multiple dosing including but not limited to AUC0-24, Cmax, Ctrough, Tmax, t½ (whenever feasible to calculate), Vss/F, CL/F.

[2] = enzalutamide monotherapy, cited from earlier work
[3] = Cohort 1: 600 mg QD Compound A + 120 mg QD enzalutamide

## CC(C)(c1ccc(OCc2ccnc(NS(C)(=O)=O)n2)cc1)c1cc(Cl)c(OCCCl)c(C#N)c1 [Compound A, N-(4-((4-(2-(3-chloro-4-(2-chloroethoxy)-5-cyanophenyl)propan-2-yl)phenoxy)methyl)pyrimidin-2-yl)methanesulfonamide]
[1]; Cohort 1, third subject
  exposure under drug-drug interaction with a concomitant medication (strong CYP3A inducer): significant decrease in exposure
[1]; [3]
  Compound A exposure, impact of enzalutamide: impacted by enzalutamide with higher metabolism of Compound A observed
[1]; Cohort 1, first subject, no prior chemotherapy (FIG. 1A)
  AUC: ~235000 ng·h/mL
[1]; Cohort 1, second subject, prior chemotherapy (FIG. 1B)
  AUC: ~62000 ng·h/mL
[1]; Cohort 1, third subject, prior chemotherapy, concomitant strong CYP3A inducer (FIG. 1C)
  AUC: ~33000 ng·h/mL

## CNC(=O)c1ccc(N2C(=S)N(c3ccc(C#N)c(C(F)(F)F)c3)C(=O)C2(C)C)cc1F [enzalutamide, reference compound]
[2]; post-chemotherapy population
  90 day confirmed PSA<0.2 ng/mL rate: 1%
[2]; pre-chemotherapy population
  90 day confirmed PSA<0.2 ng/mL rate: 5%
[1]; Cohort 1, third subject
  exposure under drug-drug interaction with a concomitant medication (strong CYP3A inducer): significant decrease in exposure
[1]; [3]
  enzalutamide exposure, impact of Compound A administration: only minimally impacted
